Assay [1] relates to CD16b. As to the kind of experiment: PAF induced CD16b expression on human neutrophils detected by CD16a.FITC. The assay is classed as cell-based. As to conditions: 10-11M peptide; PAF 10^-9M (FIG. 11). On the procedure: (§1) The expression of CD11b and CD16b on the surface of neutrophils are represented as the difference in the mean fluorescence intensity (MFI) measured in cells incubated in the presence of PAF alone and those incubated with 10-11M concentration of peptide and PAF. Many of the tripeptides reduced the expression of CD11b and CD16b on human neutrophils that had been stimulated with platelet activating factor (PAF; 10^-9M).
(§2) Leukocytes were isolated from the blood of normal healthy volunteers. The blood (20 ml) was brought to a final volume of 50 ml with cold lysis buffer (155 mM NH4Cl, 10 mM KHCO3, 1 mM disodium EDTA, pH 7.4). […]
(§3) Once isolated the neutrophils were prepared to a final concentration of […] in phosphate buffered saline (PBS). […] The supernatant is decanted off carefully and 300 μl of PBS is added to the neutrophils and cells are read with a Fluorescence Activated Cell Sorter (FACS).
(§4) The effects of the peptides on CD11b or CD16b expression were evaluated by determining the changes in mean fluorescence intensity (MFI) of cells incubated in the presence of peptide and PAF and the those incubated in presence of PAF alone, after subtracting the background (Control) MFI expressed in cells incubated with neither PAF nor a peptide. […]

Another assay relates to Sprague Dawley rats. Put plainly: Intestinal motility disturbances (MMC disruption) caused by intravenous endotoxin. The assay is classed as in vivo, rat. On the procedure:
Intravenous injection of LPS at either 10 or 20 μg/kg disrupted the normal fasting pattern of intestinal MMCs into the characteristic fed pattern which persisted for 85±3 min (n=3) and 105±8 min (n=15), respectively. The disruptions in the MMCs developed within 20±4 min and 17±1 min for the respective 10 and 20 μg/kg doses of LPS. The 20 μg/kg dose of LPS was used for subsequent experiments.
Intestinal Motility. Male and female Sprague Dawley rats, weighing 200-250 g were raised at the Life and Environmental Sciences Animal Resource Centre, The University of Calgary. The rats were maintained with lights on from 7:00 to 19:00 h, and were provided food and water ad libitum. For the intestinal motility experiments lipopolysaccharide (LPS; Salmonella typhosa; Sigma Chemical Co., St. Louis, […].) was injected intravenously at a dose of 20 μg/kg (Helistrom et al, 1997).
For motility recording rats were surgically prepared, as previously described (Mathison et al, 1998), with three bipolar jejunal electrodes under halothane anesthesia following an 18 h fast. A plastic cannula, with three pairs of Teflon-coated stainless steel bipolar electrodes, was positioned in an intrascapular region. The wires were subcutaneously tunnelled to the anterior abdominal wall, entering the peritoneal cavity through a stab incision. […] An eight-channel chart recorder (Hewlett-Packard, model 7858A) simultaneously recorded the electric signals generated by the migrating myoelectric complexes (MMCs), for three cycles before and 120 min after intravenous challenge with 20 μg/kg of LPS. […]
Changes in intestinal motility were detected by modifications in jejunal myoelectric activity from the standard MMCs that occur in fasting animals to a totally disrupted pattern of intense, irregular myoelectric electricity that developed with the endotoxic reaction. Before and after challenge with LPS, the cycle period of MMCs was determined by measuring the time between the ends of phase III activity (the marked increase in regular phasic myoelectric and motor activity) of successive MMCs.

For assay [2] the following is noted: doses as low as 1 μg/kg; cited from earlier work.
Another assay deals with leukocytes. The note with it: in vivo; cited from earlier work.
In a further assay the test system is sensitized rat ileum. As to the kind of experiment: Antigen induced contraction of the sensitized rat ileum (intestinal anaphylaxis in vitro). In kind it is cell-based. As to conditions: 10 ig of peptide in bath, 10 min, then 1 mg OA (FIG. 1). The protocol:
The Biological Response. The addition of antigen (OA) induced a slow tonic contraction of the intestinal (ileal) segments which peaked within 2 to 3 minutes before slowly receding to the baseline tension over 4 to 5 minutes. Urecholine (URE) produced a rapid tonic contraction that reached its maximum in 10 to 15 seconds. […] When FEG was added to the bath the OA/URE ratio was only 0.12±0.04, or 44% of the control response.
Effects of C-terminus substitutions, N-terminus substitutions, aromatic substitution at position 1, and Asp substitution at position 2 in both L and D forms in FEG, and removal of the glycine on inhibition of intestinal anaphylaxis in vitro.
In this in vitro motility study analogues of the tripeptide FEG were examined for their inhibitory effects on an anaphylactic reaction provoked by antigen on intestinal segments isolated from ovalbumin sensitized rats. […] Four to six weeks following sensitization, the terminal ileum was excised and 2 cm sections were mounted in 20 ml organ baths under 0.75 g of tension and the isometric force generated by OA and urecholine (Frosst, Kirkland, QC) was measured using a Grass Force Displacement Transducer FT03 (Quincy, Mass.). […] Anti-anaphylactic properties of FEG and its analogues were determined by adding 10 ig of peptide to a bath and incubating for 10 min. […] OA contractile response was measured at peak contraction. […]

Assay [3] has as its system CD16b. Put plainly: PAF induced CD16b expression on human neutrophils detected by CD16b.FITC. In kind it is cell-based. The note with it: 10-11M peptide; PAF 10^-9M (FIG. 11). On the procedure:
as §1, §2, §3, §4

Here are results for 4 substances from patent publication US6586403B1, “Treating allergic reactions and inflammatory responses with tri-and dipeptides” (Salpep Biotechnology, Inc., priority 2000, dated 2003).

Ends that are not written are not given here.

As for H-D-cha-D-glu-NH2 [(cha)e(NH2)], in the assay on CD16b [1], the “CD16b expression detected by CD16a.FITC” value is on record as “reduced”.

For H-D-phe-D-glu-Gly-NH2 [feG(NH2)], in the assay on CD16b [1], the “CD16b expression detected by CD16a.FITC” value is on record as “reduced”. Moreover, the “inhibition of LPS induced disruption of the MMCs, dose response” value with Sprague Dawley rats (FIG. 3b) is reported as “very potent”.

Regarding TDIFEGG [SGP-T], the lipopolysaccharide induced hypotension result in assay [2] is on record as “inhibits”. Besides, the “duration of MMC disruption” value in the assay on Sprague Dawley rats (intravenous dose of 350 μg/kg) was “significantly reduced”. Further, the “duration of LPS disrupted intestinal MMCs” value with Sprague Dawley rats (intravenous, 100 μg/kg, 20 min before LPS 20 μg/kg iv) is “ineffective”. Besides, the “rolling of leukocytes on mesenteric venules induced by LPS and histamine” value in the assay with leukocytes is recorded as “prevents”.

As for H-D-cha-D-glu-OH [(cha)e], in the assay with sensitized rat ileum, the “biological activity: inhibition of antigen induced contraction of the ileum” value was “active”. Further, the “CD16b expression detected by CD16b.FITC” value in the assay with CD16b [3] is given as “reduced”.
